From patent publication US20220313780A1, “METHODS AND COMPOSITIONS FOR TREATING INFLAMMATORY CONDITIONS” (THE SCRIPPS RESEARCH INSTITUTE, priority 2019, published 2022)

Assays:
[1] = system: caspase 1; assay: Caspase 1 activity assay in PMA-differentiated THP1 cells treated with LPS and ATP; assay type: cell-based, human; details: peptide at 2 nM-20 nM (tested 0-500 nM)
Procedure: THP1-null (THP1) cells were plated at a final concentration of 1×10^6/mL in 96 well plates and incubated with PMA (0.5 μM) for 3 hours 37° C. in supplemented RPMI. Media was subsequently changed every 24 hours for 3 days. Various subsets of wells were selected and cells were treated for 60 minutes at 37° C. in serum-free RPMI with: (A) APC (4 μg/mL), TR47 (50 μM-2 nM), scrTR47 (50 μM), SFLLRN (50 μM), TFLLRN (50 μM); (B) P3R (50 μM-500 nM), P3K (50 μM); (C) APC (4 or 1 μg/mL), TR47 (8 nM), P3R (500 nM) or TR47+P3R (8 nM and 500 nM, respectively); (D) TR47 (0-128 nM) (●)±P3R (500 nM) (□); (E) P3R (0-500 nM) (●)±TR47 (1 nM) (□). Following DPBS wash, cells were incubated with LPS (1 μg/mL) for 3 hours at 37° C. in serum-free RPMI. After a DPBS wash, cells were incubated with ATP (5 mM) in the presence or absence of 10 μM YVAD (caspase 1 inhibitor) or 2.5 μM ZVAD (pan-caspase inhibitor) for 45 minutes at 37° C., prior to performing the caspase 1 activity assay following manufacturer's directions measuring luminescence (relative luminescent units, RLU). (D & E) Experimental caspase 1 activity was normalized to YVAD (caspase 1 inhibitor) luminescence units. (A-E) Data points represent mean±S.D. of at least 3 independent experiments. *P<0.05 (vs. LPS+ATP); #P<0.05 (vs. LPS+ATP & APC, TR47 or P3R); **P<0.005 (vs. LPS+ATP & TR47+500 nM P3R); n.s. not significant.
THP1 cells were plated at a final concentration of 1×10^6/mL in 96 well plates and incubated with PMA (0.5 μM) for 3 hours 37° C. in supplemented RPMI. Media was subsequently changed every 24 hours for 3 days. Selected wells were treated with APC (4 μg/mL), (A) 50 μM or (B) 2 μM of P3R, P3Rm, P3R 51-65, P3R 51-59, P3R 54-59 or P3R 59-65 for 1 hour, washed with DPBS, and incubated with LPS (1 μg/mL) for 3 hours at 37° C. in serum-free RPMI. Cells were washed with DPBS and incubated with ATP (5 mM) in the presence or absence of 10 μM YVAD (caspase 1 inhibitor; C1i) or 2.5 μM ZVAD (pan-caspase inhibitor; pCi) for 45 minutes at 37° C., prior to performing the caspase 1 activity assay following manufacturer's directions measuring luminescence (relative luminescent units, RLU). (C) Diagram showing the PAR3 sequence, peptide sequences and relative (anti-inflammatory) activity. These include sequences of P3R (SEQ ID NO:4), P3Rm (SEQ ID NO:8), P3R 51-65 (SEQ ID NO:9), P3R 51-59 (SEQ ID NO:10), P3R 54-59 (SEQ ID NO:54) and P3R 59-65 (SEQ ID NO:55).
THP1 cells were plated at a final concentration of 1×10^6/mL in 96 well plates and incubated with PMA (0.5 μM) for 3 hours 37° C. in supplemented RPMI. Media was subsequently changed every 24 hours for 3 days. Selected wells were treated with APC (4 μg/mL), TR47, in (A) 9-mer (TR47 9-mer; NPNDKYEPF (SEQ ID NO:36)) or Ac-TR47 (Acylated TR47) at either 50 μM or 10 nM or (B) 50 μM of 16-mer-TR47, 8-mer-TR47, 6-mer-TR47, TR47 N−1, TR47 N−2, TR47 N−5, TR47AQ, TR47AD, TR47AA or TR48-54 for 1 hour, washed with DPBS, and incubated with LPS (1 μg/mL) for 3 hours at 37° C. in serum-free RPMI. Cells were washed with DPBS and incubated with ATP (5 mM) in the presence or absence of 10 μM YVAD (caspase 1 inhibitor; C1i) or 2.5 μM ZVAD (pan-caspase inhibitor; pCi) for 45 minutes at 37° C., prior to performing the caspase 1 activity assay following manufacturer's directions measuring luminescence (relative luminescent units, RLU). #P<0.001 (vs. LPS+ATP), **P<0.005 (vs. LPS+ATP), * (P<0.05 vs. LPS+ATP). (C) Diagram showing the PAR1 sequence, peptide sequences and relative (anti-inflammatory) activity. These include sequences of TR47 (SEQ ID NO:7), Ac-TR47 (SEQ ID NO:56), 16-mer-TR47 (SEQ ID NO:43), 9-mer-TR47 (SEQ ID NO:36), 8-mer-TR47 (SEQ ID NO:35), 6-mer-TR47 (SEQ ID NO:33), TR47 N−1 (SEQ ID NO:47), TR47 N−2 (SEQ ID NO:51), TR47 N−5 (SEQ ID NO:48), TR47AQ (SEQ ID NO:49), TR47AD (SEQ ID NO:52), TR47AA (SEQ ID NO:50) and TR48-54 (SEQ ID NO:53). […]

[2] = system: endothelial cells (EA.hy926); assay: Transendothelial Electric Resistance (TER) assay of thrombin-induced endothelial barrier disruption; assay type: cell-based
From the text: The bottom curve in each panel of the figure is labeled as IIa for thrombin alone and represents the observed effects for thrombin (IIa) in the absence of peptide. In each panel, IIa was always present for each peptide added. The number in each panel indicates the concentration of each peptide for the respective curves. The peptide concentration of 0 is represented by the bottom curve labeled “IIa”. (A) the dose response inhibition over time of TER, expressed by Normalized Cell Index (NCI) by the PAR1 derived peptide P1(47-66) or TR47 using concentrations between 5 and 50 nM. (B) the dose response inhibition over time of NCI by the PAR3-derived peptide P3(42-65) or P3R using a 5 to 50 nM concentration range. (C) The NCI dose response inhibition over time by the short sequence PAR1-derived peptide P1(47-55) using a range of concentrations between 50 nM and 100 μM peptide. (D) The NCI dose response inhibition over time by the short sequence PAR3-derived peptide P3(42-54) using a range of concentrations between 1 μM and 200 μM peptide. (E) The NCI dose response inhibition over time by the hybrid peptide G10 in which the P1(47-55) peptide described in panel C was linked to a PAR3 peptide P3(51-65) by using 10 Gly residues. In this case the range of concentrations to study the dose response inhibition was between 3 and 50 nM peptide. An estimate for the percentage of activity for each peptide dilution in presence of thrombin can be quantified by obtaining the Area under the Curve (AUC) for each peptide dilution in comparison to the value for the AUC for thrombin alone in the absence of any peptide. These values were used to calculate the potency of each PAR peptide.
Transendothelial Electric Resistance (TER)-based assays were used to monitor the disruption of endothelial barrier integrity caused by thrombin. The anti-inflammatory, vasculoprotective actions of different PAR peptides for protecting against thrombin-induced vascular leakage on cultured endothelial cells (EA.hy926) were followed in real time using an iCELLigence machine (ACEA Biosciences Inc, San Diego, Calif.). EA.hy926 cells at a density of 10,000/well were pipetted into the wells of gold-plated microelectrode sensor (L8, Acea Biosciences). Subsequently, the increase of electrical resistance was monitored as cells grew and spread out on the microelectrodes to obtain confluence (reaching a plateau) over the TER plates connected to the recording instrument that detected in real time the changes in TER for each well. The effects of different PAR-derived peptides at the indicated concentrations were tested for dose-response inhibition of thrombin's effects when each of the peptide dilutions was added 30 min prior to the addition of thrombin (0.25 nM final in all wells). The percentage of inhibition was proportional to the increase in TER signal over time. Cell index values, reflecting TER signals, were normalized prior to addition of thrombin following manufacturer's directions.

NPNDKYEPFGGGGGGGGGGFPFSALEGWTGATIT [G10, PAR1/PAR3 fusion peptide, P1(47-55) linked to P3(51-65) by 10 Glycine residues]
caspase-1 activity [1]: a significant reduction in caspase-1 activity
effect on thrombin-induced disruption of endothelial barrier ([2]; peptide at 3 to 50 nM): very significant effects
effectiveness relative to PAR3 peptide P3(42-54) alone ([2]; protection of endothelial barrier integrity): > 100 fold
potency relative to the long PAR1 peptide TR47 ([2]; protection of endothelial barrier integrity, 6 nM G10 compared to 50 nM PAR1 peptide): ~8 fold
EC50 ([2]; stabilization of endothelial cell barrier integrity, thrombin 0.25 nM, peptide added 30 min prior, read-out: half-maximum observed activity): ~6 nM
